Consider two compounds from article PMC4336331, “Novel Receptor-Derived Cyclopeptides to Treat Heart Failure Caused by Anti-β1-Adrenoceptor Antibodies in a Human-Analogous Rat Model” (PLoS ONE, 2015).

In one test the test system is heart rate. Kind of test: Bisoprolol titration pre-experiments, heart rate. Type of test: in vivo, Lewis/CrlBR rats. How it is done: In brief, n = 76 two months old Lewis/CrlBR rats were either s.c. immunised with 50 μg β1EC2/GST-FP, or n = 38 rats were control-injected with 0.9% NaCl (t = 0). To maintain high anti-β1EC2-titers, all immunised rats were boosted with β1EC2/GST-FP (or 0.9% NaCl) every month over 20 months as previously described. Application of the different linear or cyclic β1-AR peptides (corresponding to the primary AA-sequence of either the first (β1EC1) or the 2nd extra-cellular β1-AR loop (β1EC2)) or the β1-receptor blocker bisoprolol was initiated either 6 weeks after the 1st immunisation (i.e. 15 days after the 1st boost, prevention-study), or 8.5 months after the 1st immunisation (therapy-study).

A further test relates to GRK2 and GRK5. The test is described as follows: qRT-PCR of cardiac GRK expression, therapy-study. Type of test: in vivo, Lewis/CrlBR rats. The note with it: qRT-PCR normalised to GAPDH (Fig. 4C).
Test [1] relates to functional β1EC2-specific memory B-cells. The test is described as follows: Adoptive B-cell transfer and suboptimal immunisation. Type of test: in vivo, Lewis rats. The note with it: purified B-cells from immunised treated donors into antigen-naïve recipients, then 12.5μg β1EC2/GST-FP in adjuvans (Fig. 5M). The procedure:
(d) To detect functional β 1 EC2-specific memory B-cells in vivo, B-cells were first purified from total splenocytes by negative depletion using mAb V65, R73, 10/78 and WT.5 plus magnetic beads (MACS, Miltenyi Biotec, Bergisch-Gladbach, Germany) yielding average purities of 87%. 2.6x10^7 purified B cells were injected in 250 μl PBS i.v. into antigen-naïve syngeneic male Lewis rats. To selectively trigger the transferred memory B-cells, recipient rats were immunised after five days with only 12.5 μg GST/β1EC2-FP in adjuvans per animal. Serum was collected for antibody detection just before as well as three and seven days after immunisation.
(§1) Fig 5 Immunology of cyclic β1EC2-peptides: fate of β1EC2-specific T- and B-cells. (A) Titer-course of anti-β1EC2-abs in β1EC2-CP-treated rats during the first 6 months of the prevention-study before and 24h after cyclopeptide-injection. Time-points of antigen-boosts are indicated by (red) lines, time-points of CP-injections by (green) arrows. For better readability error-bars are not shown in the graph. (B) Pre-experiments (antigenic recall-assays) performed with CD4^+ T-cells prepared from spleens of GST/β1EC2 fusion-protein (FP)-immunised untreated (n = 3, black) vs. 0.9%NaCl-injected control rats (n = 3, white). […]

For test [2], the system named is β1EC2-specific memory B-cells. The test is described as follows: Flow cytometric detection of β1EC2-specific memory B-cells. Type of test: in vivo, Lewis/CrlBR rats. As to conditions: Fig. 5K and L. How it is done: (c) For flow cytometric detection of β 1 EC2-specific memory B-cells, splenocytes (1.5x10^8 cells per staining, 2x10^7 cells/ ml in PBS/0.1% BSA/0.02% NaN3) were first labelled with anti-rat IgG(Fc) PE (Jackson Immunoresearch, West Grove, USA) followed by three washings and a blocking step using normal rat serum plus GST (1:500 and 2 μg/ ml, respectively). After another washing step, OX-33 FITC (BD, Heidelberg, Germany, 0.1 μg/ml) and DyLight649-labelled GST/β1EC2-FP (0.2 μg/ml) were added. All incubations were carried out for 15 min on ice and in the dark. Finally, the cells were washed three times and analysed on a FACS-Calibur (BD, Heidelberg, Germany) and FlowJo Software (Tree Star, Ashland, USA) was used to analyse the data.
as §1

Peptide text beside a SMILES is read from it.

`CC(C)NCC(O)COc1ccc(COCCOC(C)C)cc1` (centres unmarked) [bisoprolol, reference compound]: in the test on heart rate (oral dose 15 mg/kg/day derived from titration pre-experiments [5/10/15mg]), the “decrease of heart rate” value was “at least 10%”. The “heart rate after bisoprolol” value in the test with heart rate (titration pre-experiments [5/10/15mg], 15mg oral, from 236±10 bpm, n = 5, p<0.005) is recorded as 205±9 bpm.

In the case of `CC(C)[C@@H]1NC(=O)[C@H](Cc2ccccc2)NC(=O)[C@H](CC(=O)O)NC(=O)[C@H](CS)NC(=O)[C@H](CS)NC(=O)[C@H](CCCCN)NC(=O)[C@@H]2CCCN2C(=O)[C@H](CC(=O)O)NC(=O)[C@H](CC(N)=O)NC(=O)[C@H](Cc2ccc(O)cc2)NC(=O)[C@H](CS)NC(=O)[C@H](CCCNC(=N)N)NC(=O)[C@H](CCCNC(=N)N)NC(=O)[C@H](C)NC(=O)[C@H](CCC(=O)O)NC(=O)[C@H](CC(=O)O)NC(=O)[C@H](CO)NC(=O)[C@H](CCC(=O)O)NC(=O)[C@H](C)NC(=O)[C@H](CCCNC(=N)N)NC(=O)[C@H](C)NC(=O)[C@H](CCC(N)=O)NC(=O)CNC(=O)[C@H](CCCNC(=N)N)NC(=O)[C@H](CC(N)=O)NC(=O)[C@H]([C@@H](C)O)NC1=O` [β1EC2-CP] (cyclo(AESDEARRCYNDPKCCDFVTNRGQAR)), the “upregulation of GRK2 and GRK5, in words” value in the test on GRK2 and GRK5 is given as “reverted”. Moreover, the “anti-β1EC2-abs in serum of recipient rats after B-cell transfer, in words” value in test [1] was “did not induce detectable amounts”. In addition, the “β1EC2-specific memory B-cells by flow cytometry, in words” value in test [2] was “complete depletion”.
